Results from ChEMBL document CHEMBL2202963, “GPR119 Modulators for the Treatment of Diabetes, Obesity, and Related Diseases: Patent Highlight” (ACS Med Chem Lett, 2012).
pEC50: −log10 of the molar value. Blank lines part the entries; values can stand above or below the compound they belong to.

Key:
[1] = molecular target: T1, Glucose-dependent insulinotropic receptor (Homo sapiens, UniProt Q8TDV5); experiment: Agonist activity at GPR119 expressed in CHO-K1 cells assessed as cAMP level after 1 hr by homogenous time-resolved fluorescence assay; format: functional, cell-based
T1 sequence (Q8TDV5 whole entry): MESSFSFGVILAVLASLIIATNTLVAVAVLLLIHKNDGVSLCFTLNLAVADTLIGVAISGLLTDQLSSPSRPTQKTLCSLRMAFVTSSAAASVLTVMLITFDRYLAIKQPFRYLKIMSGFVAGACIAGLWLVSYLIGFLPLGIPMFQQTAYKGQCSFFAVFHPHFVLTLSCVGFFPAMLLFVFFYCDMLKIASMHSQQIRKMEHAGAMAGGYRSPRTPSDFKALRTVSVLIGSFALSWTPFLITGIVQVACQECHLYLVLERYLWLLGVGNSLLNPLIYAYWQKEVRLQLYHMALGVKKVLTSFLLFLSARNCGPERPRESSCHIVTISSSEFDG

[2] = molecular target: T1, Glucose-dependent insulinotropic receptor; experiment: Agonist activity at human GPR119 expressed in MIN6 cells assessed as intracellular cAMP concentration after 45 mins by Alphascreen analysis; format: functional, cell-based
Rhesus monkey [3] = experiment: Drug metabolism in monkey assessed as 3-fluoro-4-(5-fluoro-6-(4-(3-(2-fluoropropan-2-yl)-l, 2,4-oxadiazol-5-yl)piperidin-l -yl)pyrimidin-4-ylamino)benzoic acid metabolite by LC/MS/MS analysis; format: ADME, organism-based, Macaca mulatta; conditions: in vivo
Rhesus monkey [4] = experiment: Drug metabolism in monkey assessed as 3-fluoro-4-(5-fluoro-6-(4-(3-(2-fluoropropan-2-yl)-1,2,4-oxadiazol-5-yl)piperidin-1-yl)pyrimidin-4-ylamino)benzamide metabolite by LC/MS/MS analysis; format: ADME, organism-based, Macaca mulatta; conditions: in vivo
Mus musculus [5] = species on record: Mus musculus; experiment: Drug metabolism in mouse assessed as 3-fluoro-4-(5-fluoro-6-(4-(3-(2-fluoropropan-2-yl)-1,2,4-oxadiazol-5-yl)piperidin-1-yl)pyrimidin-4-ylamino)benzamide metabolite by LC/MS/MS analysis; format: ADME, organism-based; conditions: in vivo
Canis familiaris [6] = species on record: Canis familiaris; experiment: Drug metabolism in dog assessed as 3-fluoro-4-(5-fluoro-6-(4-(3-(2-fluoropropan-2-yl)-1,2,4-oxadiazol-5-yl)piperidin-1-yl)pyrimidin-4-ylamino)benzamide metabolite by LC/MS/MS analysis; format: ADME, organism-based, Canis lupus familiaris; conditions: in vivo
Canis familiaris [7] = species on record: Canis familiaris; experiment: Drug metabolism in dog assessed as 3-fluoro-4-(5-fluoro-6-(4-(3-(2-fluoropropan-2-yl)-1,2,4-oxadiazol-5-yl)piperidin-1-yl)pyrimidin-4-ylamino)-N-methylbenzamide metabolite by LC/MS/MS analysis; format: ADME, organism-based, Canis lupus familiaris; conditions: in vivo
Rattus norvegicus [8] = species on record: Rattus norvegicus; experiment: Drug metabolism in rat assessed as 3-fluoro-4-(5-fluoro-6-(4-(3-(2-fluoropropan-2-yl)-1,2,4-oxadiazol-5-yl)piperidin-1-yl)pyrimidin-4-ylamino)-N-methylbenzamide metabolite by LC/MS/MS analysis; format: ADME, organism-based; conditions: in vivo
Rattus norvegicus [9] = species on record: Rattus norvegicus; experiment: Drug metabolism in rat assessed as 3-fluoro-4-(5-fluoro-6-(4-(3-(2-fluoropropan-2-yl)-1,2,4-oxadiazol-5-yl)piperidin-1-yl)pyrimidin-4-ylamino)benzamide metabolite by LC/MS/MS analysis; format: ADME, organism-based; conditions: in vivo
Mus musculus [10] = species on record: Mus musculus; experiment: Drug metabolism in mouse assessed as 3-fluoro-4-(5-fluoro-6-(4-(3-(2-fluoropropan-2-yl)-1,2,4-oxadiazol-5-yl)piperidin-1-yl)pyrimidin-4-ylamino)-N-methylbenzamide metabolite by LC/MS/MS analysis; format: ADME, organism-based; conditions: in vivo
Canis familiaris [11] = species on record: Canis familiaris; experiment: Drug metabolism in dog assessed as 3-fluoro-4-(5-fluoro-6-(4-(3-(2-fluoropropan-2-yl)-l, 2,4-oxadiazol-5-yl)piperidin-l -yl)pyrimidin-4-ylamino)benzoic acid metabolite by LC/MS/MS analysis; format: ADME, organism-based, Canis lupus familiaris; conditions: in vivo
Mus musculus [12] = species on record: Mus musculus; experiment: Drug metabolism in mouse assessed as 3-fluoro-4-(5-fluoro-6-(4-(3-(2-fluoropropan-2-yl)-l, 2,4-oxadiazol-5-yl)piperidin-l -yl)pyrimidin-4-ylamino)benzoic acid metabolite by LC/MS/MS analysis; format: ADME, organism-based; conditions: in vivo
Rhesus monkey [13] = experiment: Drug metabolism in monkey assessed as 3-fluoro-4-(5-fluoro-6-(4-(3-(2-fluoropropan-2-yl)-1,2,4-oxadiazol-5-yl)piperidin-1-yl)pyrimidin-4-ylamino)-N-methylbenzamide metabolite by LC/MS/MS analysis; format: ADME, organism-based, Macaca mulatta; conditions: in vivo
Rattus norvegicus [14] = species on record: Rattus norvegicus; experiment: Drug metabolism in rat assessed as 3-fluoro-4-(5-fluoro-6-(4-(3-(2-fluoropropan-2-yl)-l, 2,4-oxadiazol-5-yl)piperidin-l -yl)pyrimidin-4-ylamino)benzoic acid metabolite by LC/MS/MS analysis; format: ADME, organism-based; conditions: in vivo

pEC50 [1]: 4.00
SMILES: CC(C)(F)c1noc(C2CCN(c3ncnc(Nc4ccc(C(=O)O)cc4F)c3F)CC2)n1

pEC50 [2]: 8.70
SMILES: CCc1cnc(N2CCC(C3Cc4cc(C5CCN(S(C)(=O)=O)CC5)ncc4O3)CC2)nc1 (stereo not given)

pEC50 [2]: 6.64
SMILES: CCc1cnc(N2CCC(C3Cc4cc(-c5ccc(C(=O)N6CC(F)(F)C6)cc5)ccc4O3)CC2)nc1 (stereo not given)

Drug metabolism (Rhesus monkey [3]): Active
Drug metabolism (Rhesus monkey [4]): Active
Drug metabolism (Mus musculus [5]): Active
Drug metabolism (Canis familiaris [6]): Active
Drug metabolism (Canis familiaris [7]): Active
Drug metabolism (Rattus norvegicus [8]): Active
Drug metabolism (Rattus norvegicus [9]): Active
Drug metabolism (Mus musculus [10]): Active
Drug metabolism (Canis familiaris [11]): Active
Drug metabolism (Mus musculus [12]): Active
Drug metabolism (Rhesus monkey [13]): Active
Drug metabolism (Rattus norvegicus [14]): Active
SMILES: CN(C)C(=O)c1ccc(Nc2ncnc(N3CCC(c4nc(C(C)(C)F)no4)CC3)c2F)c(F)c1
